Laboratory results taken from patent US20200339548A1, “PYRIMIDINE DERIVATIVES AND THEIR USE FOR THE TREATMENT OF CANCER” (Adorx Therapeutics Limited, priority 2017, published 2020).
Read-outs that look alike come from different tables or passages of the source.

What was measured:
Adenosine A1 receptor = target: T1, Adenosine A1 receptor (Homo sapiens, UniProt P30542); assay: Adenosine receptor TR-FRET binding assay, A1; details: Table 9, further testing; displacement of 100 nM CA200645, CHO cell membranes
T1 construct: expressed in transfected cells; host or cells: CHO cell membranes
T1 sequence (P30542 1-326): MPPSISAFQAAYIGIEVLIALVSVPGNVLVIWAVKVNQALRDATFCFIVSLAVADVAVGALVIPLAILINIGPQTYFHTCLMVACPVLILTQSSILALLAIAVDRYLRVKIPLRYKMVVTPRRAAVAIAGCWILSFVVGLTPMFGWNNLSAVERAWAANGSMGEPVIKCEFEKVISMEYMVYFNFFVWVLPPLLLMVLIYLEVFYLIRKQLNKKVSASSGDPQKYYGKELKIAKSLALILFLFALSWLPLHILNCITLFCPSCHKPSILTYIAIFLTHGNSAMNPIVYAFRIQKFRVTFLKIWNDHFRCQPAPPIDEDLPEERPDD
Outline: (§1)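 Competition TR-FRET binding in CHO cell membranes expressing terbium-labelled human receptors, displacing fluorescent XAC (CA200645; 30 nM for A2b, 100 nM for A1, A2a, A3); 2 h at room temperature with saponin buffer, 1% DMSO. 665/620 nm ratio; non-specific with 10 μM XAC; Ki by Cheng–Prusoff from IC50.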

Adenosine A2b receptor = target: T2, Adenosine A2b receptor (Homo sapiens, UniProt P29275); assay: Adenosine receptor TR-FRET binding assay, A2b; details: Table 9, further testing; displacement of 30 nM CA200645, CHO cell membranes
T2 construct: expressed in transfected cells; host or cells: CHO cell membranes
T2 sequence (P29275 1-332): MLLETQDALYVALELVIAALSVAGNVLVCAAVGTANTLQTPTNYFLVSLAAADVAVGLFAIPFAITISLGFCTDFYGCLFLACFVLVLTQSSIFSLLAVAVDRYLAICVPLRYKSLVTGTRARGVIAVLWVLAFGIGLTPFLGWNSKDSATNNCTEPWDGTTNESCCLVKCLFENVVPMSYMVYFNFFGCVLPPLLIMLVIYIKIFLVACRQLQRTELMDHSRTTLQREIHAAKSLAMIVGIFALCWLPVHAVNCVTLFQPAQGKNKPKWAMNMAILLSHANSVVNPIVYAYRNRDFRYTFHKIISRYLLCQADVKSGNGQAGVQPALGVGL
Outline: as §1

Adenosine A3 receptor = target: T3, Adenosine A3 receptor (Homo sapiens, UniProt P0DMS8); assay: Adenosine receptor TR-FRET binding assay, A3
T3 construct: expressed in transfected cells; host or cells: CHO cell membranes
T3 sequence (P0DMS8 1-318): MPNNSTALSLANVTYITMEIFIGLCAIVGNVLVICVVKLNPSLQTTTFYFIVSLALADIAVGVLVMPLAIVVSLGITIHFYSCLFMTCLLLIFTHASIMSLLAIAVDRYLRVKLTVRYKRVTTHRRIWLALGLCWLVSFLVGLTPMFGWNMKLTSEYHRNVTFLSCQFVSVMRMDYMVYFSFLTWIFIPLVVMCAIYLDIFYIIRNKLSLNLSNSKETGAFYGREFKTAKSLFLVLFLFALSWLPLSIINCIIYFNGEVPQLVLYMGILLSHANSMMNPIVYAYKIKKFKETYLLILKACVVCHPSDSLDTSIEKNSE
Outline: as §1

Human PBMCs = assay: CD3/CD28 stimulated IL-2 release NECA reversal assay; type: cell-based; details: Homo sapiens, PBMC, read-out: IL-2 release NECA reversal IC50 (nM), 1 uM NECA, 24 hours
Experimental: Blood is drawn from healthy volunteers using sodium citrate as the anticoagulant (0.3% final concentration). […] 50 μl diluted compound mix is added to the cells, to obtain final concentrations of 1 ug/ml CD28 antibody, 1 uM NECA and 0.003-10 μM adenosine receptor antagonist. Assay plates are incubated for 24 hours at 37° C. in a humidified incubator.

Adenosine A2a receptor = target: T4, Adenosine A2a receptor (Homo sapiens, UniProt P29274); assay: Adenosine receptor TR-FRET binding assay, A2a; details: displacement of 100 nM CA200645, CHO cell membranes
T4 construct: expressed in transfected cells; host or cells: CHO cell membranes
T4 sequence (P29274 whole entry): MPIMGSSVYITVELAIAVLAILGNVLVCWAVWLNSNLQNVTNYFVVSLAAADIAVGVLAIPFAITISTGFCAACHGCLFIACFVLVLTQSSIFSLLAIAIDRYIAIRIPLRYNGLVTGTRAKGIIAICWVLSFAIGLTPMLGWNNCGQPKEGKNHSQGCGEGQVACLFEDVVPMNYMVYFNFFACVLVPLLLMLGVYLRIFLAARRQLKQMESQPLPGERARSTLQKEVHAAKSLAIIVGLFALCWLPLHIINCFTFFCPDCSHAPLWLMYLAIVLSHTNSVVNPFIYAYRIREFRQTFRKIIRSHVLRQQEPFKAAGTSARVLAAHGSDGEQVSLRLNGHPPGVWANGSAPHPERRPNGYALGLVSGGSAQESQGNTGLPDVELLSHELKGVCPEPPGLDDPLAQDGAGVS
Outline: as §1

[1] = Table 9, further testing, displacement of 100 nM CA200645, CHO cell membranes, read-out: A3 Ki

SMILES	Ki (Adenosine A1 receptor) [nM]	Ki (Adenosine A2b receptor) [nM]	Ki (Adenosine A3 receptor; [1]) [nM]	IC50 (Human PBMCs) [nM]	Ki (Adenosine A2a receptor; Table 8, Cheng and Prusoff) [nM]	Ki (Adenosine A2a receptor; Table 9, further testing) [nM]	Ki (Adenosine A3 receptor) [nM]
Cc1cccnc1CNC(=O)c1nnc(-c2ccco2)nc1N [Example 2, 5-Amino-3-(2-furyl)-N-[(3-methyl-2-pyridyl)methyl]-1,2,4-triazine-6-carboxamide]	318	95	50	408	0.9	0.79	
Cc1cccnc1CNC(=O)c1cnc(-c2cccc(F)c2)nc1N [Example 4.3, 4-Amino-2-(3-fluorophenyl)-N-[(3-methyl-2-pyridyl)methyl]pyrimidine-5-carboxamide]	49	689	54	705	12	12	
Nc1nc(-c2ccco2)ncc1C(=O)NCc1cccc(Cl)c1 [Example 5.12, 4-Amino-N-[(3-chlorophenyl)methyl]-2-(2-furyl)pyrimidine-5-carboxamide]	962	1570	1160	345	4.1	3.9	
Nc1nc(-c2ccco2)ncc1C(=O)NCc1ccccc1F [Example 5.18, 4-Amino-N-[(2-fluorophenyl)methyl]-2-(2-furyl)pyrimidine-5-carboxamide]	1760	215	1940	230	3.8	3.3	
COc1ccccc1CNC(=O)c1cnc(-c2ccco2)nc1N [Example 5.20, 4-Amino-2-(2-furyl)-N-[(2-methoxyphenyl)methyl]pyrimidine-5-carboxamide]	426	1190	757	122	1.1	0.95	
Nc1nc(-c2ccco2)ncc1C(=O)NCc1ncccc1Cl [Example 5.21, 4-Amino-N-[(3-chloro-2-pyridyl)methyl]-2-(2-furyl)pyrimidine-5-carboxamide]	1850	1160		123	1.5	1.5	1190
Nc1nc(-c2ccco2)ncc1C(=O)NCc1cccc2cccnc12 [Example 5.25, 4-Amino-2-(2-furyl)-N-(8-quinolylmethyl) pyrimidine-5-carboxamide]	706	1470	506	15	1.2	0.83	
Cc1cccnc1CNC(=O)c1nnc(-c2cccc(F)c2)nc1N [Example 7, 5-Amino-3-(3-fluorophenyl)-N-[(3-methyl-2-pyridyl)methyl]-1,2,4-triazine-6-carboxamide]	42	383	13	830	11	12	
Nc1nc(-c2cccc(F)c2)ncc1C(=O)NCc1ccccc1O [Example 10.1, 4-Amino-2-(3-fluorophenyl)-N-[(2-hydroxyphenyl)methyl]pyrimidine-5-carboxamide]	93	54	421	216	13	13	
Nc1nc(-c2cccc(F)c2)ncc1C(=O)NCc1c(Cl)cccc1Cl [Example 10.6, 4-Amino-N-[(2,6-dichlorophenyl)methyl]-2-(3-fluorophenyl)pyrimidine-5-carboxamide]	231	1310	160	685	32	32	
COc1ccccc1CNC(=O)c1cnc(-c2cccc(F)c2)nc1N [Example 10.8, 4-Amino-2-(3-fluorophenyl)-N-[(2-methoxyphenyl)methyl]pyrimidine-5-carboxamide]	143	1750	230	2000	27	27	
Nc1nc(-c2cccc(F)c2)ncc1C(=O)NCc1cccc2cccnc12 [Example 10.13, 4-Amino-2-(3-fluorophenyl)-N-(8-quinolylmethyl)pyrimidine-5-carboxamide]	38	415	105	926	4.7	3.3	
CCn1ccnc1CNC(=O)c1cnc(-c2cccc(F)c2)nc1N [Example 10.14, 4-Amino-N-[(1-ethylimidazol-2-yl)methyl]-2-(3-fluorophenyl)pyrimidine-5-carboxamide]	159	1140	609	1240	42	42	
CC(C)n1ncnc1CNC(=O)c1cnc(-c2cccc(F)c2)nc1N [Example 10.15, 4-Amino-2-(3-fluorophenyl)-N-[(2-isopropyl-1,2,4-triazol-3-yl)methyl]pyrimidine-5-carboxamide]	90	1280	2510	1290	34	34	
Nc1nc(-c2ccco2)ncc1C(=O)NCc1ccccc1O [Example 11.2, 4-amino-2-(2-furyl)-N-[(2-hydroxyphenyl)methyl]pyrimidine-5-carboxamide]	787	50		71	1.2	0.71	
Cc1cccnc1CNC(=O)c1cnc(-c2cccc(C#N)c2)nc1N [Example 12, 4-Amino-2-(3-cyanophenyl)-N-[(3-methyl-2-pyridyl)methyl]pyrimidine-5-carboxamide]	17	1560	1030	1200	27	27	
Cc1cccnc1CNC(=O)c1nnc(-c2cccc(C#N)c2)nc1N [Example 17, 5-Amino-3-(3-cyanophenyl)-N-[(3-methyl-2-pyridyl)methyl]-1,2,4-triazine-6-carboxamide]	767	405	442	309	3.8	2.4	
COc1nc(-c2ccco2)nc(N)c1C(=O)NCc1ncccc1C [Example 18, 4-Amino-2-(2-furyl)-6-methoxy-N-[(3-methyl-2-pyridyl)methyl]pyrimidine-5-carboxamide]	202	231	201	37	1.1	0.64	
COc1nc(-c2ccco2)nc(N)c1C(=O)NCc1ncccc1C(F)(F)F [Example 18.1, 4-Amino-2-(2-furyl)-6-methoxy-N-[[3-(trifluoromethyl)-2-pyridyl]methyl]pyrimidine-5-carboxamide]	176	495	149	28		0.23	
Cc1cccnc1CNC(=O)c1c(N)nc(-c2ccco2)nc1OCCF [Example 20.7, 4-Amino-6-(2-fluoroethoxy)-2-(2-furyl)-N-[(3-methyl-2-pyridyl)methyl]pyrimidine-5-carboxamide]	6.6	29	15	14		0.11	
Cc1cccnc1CNC(=O)c1c(N)nc(-c2ccco2)nc1OCC(C)(C)C [Example 20.10, 4-Amino-6-(2,2-dimethylpropoxy)-2-(2-furyl)-N-[(3-methyl-2-pyridyl)methyl]pyrimidine-5-carboxamide]	4.9	1220	11	62		1.8	
Cn1ncnc1CNC(=O)c1c(N)nc(-c2cccc(C#N)c2)nc1OCCF [Example 24.7, 4-Amino-2-(3-cyanophenyl)-6-(2-fluoroethoxy)-N-[(2-methyl-1,2,4-triazol-3-yl)methyl]pyrimidine-5-carboxamide]	145		1610	212		8.1	
